Columns and labels:
Assay in all cases: Multigene assay (QuantiGene Plex 2.0), mouse MEF cell line
Type in all cases: cell-based
Settings in all cases: 6 hours post-compound treatment
HMOX = system: HMOX
Description: (§1) This assay used the QuantiGene Plex 2.0 Reagent System from Affymetrix. This assay combines the use of bDNA (branch DNA) and xMAP magnetic capture beads from Luminex Technologies to quantitatively and simultaneously detect multiple mRNA transcripts per well. The overall procedure was performed according to the QuantiGene Plex 2.0 Reagent System instruction manual from Affymetrix.
(§2) Cells were seeded at a density of 12,000 cells/well in 96-well plates with an overnight incubation at 37° C., 5% CO2. Cells were treated with serially diluted compounds in a 7-point dose dependent manner. Cell lysis with 50% [v/v] Panomics Lysis Mixture (Lysis Mixture+10 μl/ml 25 Proteinase K) was performed 6 hours post-compound treatment. Lysed cells were heated at 50° C. to ensure appropriate lysing and the plates were then frozen at −80° C. Cell lysates, thawed at room temperature on the day of the assay, were pooled with mouse 8-gene multiplex probe sets and with 8 different sets of magnetic capture beads (Luminex Technology, Austin, Tex.) in a 100 μl/well volume. Biomek FX was used at every liquid transfer step. The eight plates containing lysate-probe-bead mixtures were incubated at 54° C.±1° C. on a shaking platform for an overnight incubation in the dark (18-20 hours). The following day the hybridization plates were compressed by transferring the hybridized lysates into a single magnetic capture plate. The plate was kept on a magnet to hold the beads and then washed with Panomics Wash Buffer 2.0 on a BioTek ELx405 select plate washer to remove any unbound sample. This step was followed by serial hybridizations and washings of the bDNA pre-amplifier (1 hour, 50° C.), bDNA amplifier (1 hour, 50° C.), label probe (1 hour, 50° C.), and streptavidin-phycoerythrin (SAPE, 30 minutes, room temperature). (Zhang, A. et al. Small interfering RNA and gene expression analysis using a multiplex branched DNA assay without RNA purification. J Biomol Screen 10, 549-56 (2005)). The plate was then washed with SAPE wash buffer to remove unbound SAPE and each well was analyzed with the Luminex FlexMap3D (Luminex, Austin, Tex.). SAPE fluorescence measured from each bead was proportional to the number of mRNA transcripts captured by the beads (Zheng, Z., Luo, Y. & McMaster, G. K. Sensitive and quantitative measurement of gene expression directly from a small amount of whole blood. Clin Chem 52, 1294-302 (2006)). Fold changes in gene expression were obtained for each gene per well by normalizing the raw data first to the DMSO control and then to a housekeeping gene (TBP-TATA binding protein or Tub1-alpha-tubulin).

HSPA1a = system: HSPA1a
Description: as §1, §2

TUB1 = system: TUB1
Description: as §1, §2

DDIT3 = system: DDIT3
Description: as §1, §2

GCLM = system: GCLM
Description: as §1, §2

BCL2 = system: BCL2
Description: as §1, §2

HspA5 = system: HspA5
Description: as §1, §2

Row | Structure (SMILES) | HMOX gene induction (HMOX; Table 4b) | HSPA1a gene induction (HSPA1a; Table 4b) | TUB1 gene induction (TUB1; Table 4a) | DDIT3 gene induction (DDIT3; Table 4a) | GCLM gene induction (GCLM; Table 4a) | BCL2 gene induction (BCL2; Table 4b) | HspA5 gene induction (HspA5; Table 4b) | other results
1 | COc1ccccc1C1C(C#N)=C(C)NC2=C1C(=O)CC(c1ccccc1)C2 (stereo not shown) [drawing 27/Me/CN/o-OMe/H] | – | – | – | – | – | – | – | HMOX gene induction (HMOX; Table 2b): − (− Indicates less than 2 fold induction); HSPA1a gene induction (HSPA1a; Table 2b): + (+ indicates a induction of greater than 2 fold); TUB1 gene induction (TUB1; Table 2a): − (− Indicates less than 2 fold induction); DDIT3 gene induction (DDIT3; Table 2a): − (− Indicates less than 2 fold induction); GCLM gene induction (GCLM; Table 2a): − (− Indicates less than 2 fold induction); BCL2 gene induction (BCL2; Table 2b): − (− Indicates less than 2 fold induction); HspA5 gene induction (HspA5; Table 2b): − (− Indicates less than 2 fold induction)
2 | Cc1ccsc1C1C(C#N)=C(N)Oc2[nH]nc(C(C)(C)C)c21 (stereo not shown) [drawing 29/CMe3/H/Me/S] | + (+ indicates a induction of greater than 2 fold) | − (− Indicates less than 2 fold induction) | − (− Indicates less than 2 fold induction) | − (− Indicates less than 2 fold induction) | + (+ indicates a induction of greater than 2 fold) | − (− Indicates less than 2 fold induction) | − (− Indicates less than 2 fold induction) | –
3 | COCC1=C(C(=O)OCC(C)C)C(c2ccc(F)cc2)C2=C(CC(c3cccs3)CC2=O)N1 (stereo not shown) [drawing 26/CH2OMe/COOCH2CHMe2/p-F] | – | – | – | – | – | – | – | HMOX gene induction (HMOX; Table 1b): + (+ indicates a induction of greater than 2 fold); HSPA1a gene induction (HSPA1a; Table 1b): − (− Indicates less than 2 fold induction); TUB1 gene induction (TUB1; Table 1a): − (− Indicates less than 2 fold induction); DDIT3 gene induction (DDIT3; Table 1a): + (+ indicates a induction of greater than 2 fold); GCLM gene induction (GCLM; Table 1a): − (− Indicates less than 2 fold induction); BCL2 gene induction (BCL2; Table 1b): − (− Indicates less than 2 fold induction); HspA5 gene induction (HspA5; Table 1b): − (− Indicates less than 2 fold induction)
4 | CC(C)(C)c1n[nH]c2c1C(c1cccs1)C(C#N)=C(N)O2 (stereo not shown) [drawing 29/CMe3/H/H/S] | + (+ indicates a induction of greater than 2 fold) | − (− Indicates less than 2 fold induction) | − (− Indicates less than 2 fold induction) | − (− Indicates less than 2 fold induction) | + (+ indicates a induction of greater than 2 fold) | − (− Indicates less than 2 fold induction) | − (− Indicates less than 2 fold induction) | –
5 | N#CC1=C(N)Oc2[nH]nc(C34CC5CC(CC(C5)C3)C4)c2C1c1cccs1 (stereo not shown) [drawing 29/1-Adamantyl/H/H/S] | + (+ indicates a induction of greater than 2 fold) | − (− Indicates less than 2 fold induction) | − (− Indicates less than 2 fold induction) | − (− Indicates less than 2 fold induction) | + (+ indicates a induction of greater than 2 fold) | − (− Indicates less than 2 fold induction) | − (− Indicates less than 2 fold induction) | –
6 | Cc1n[nH]c2c1C(c1cccs1)C(C#N)=C(N)O2 (stereo not shown) [drawing 29/Me/H/H/S] | + (+ indicates a induction of greater than 2 fold) | − (− Indicates less than 2 fold induction) | − (− Indicates less than 2 fold induction) | − (− Indicates less than 2 fold induction) | + (+ indicates a induction of greater than 2 fold) | − (− Indicates less than 2 fold induction) | − (− Indicates less than 2 fold induction) | –
7 | CCCc1n[nH]c2c1C(c1ccc(C)o1)C(C#N)=C(N)O2 (stereo not shown) [drawing 29/(CH2)2Me/Me/H/O] | + (+ indicates a induction of greater than 2 fold) | − (− Indicates less than 2 fold induction) | − (− Indicates less than 2 fold induction) | − (− Indicates less than 2 fold induction) | + (+ indicates a induction of greater than 2 fold) | − (− Indicates less than 2 fold induction) | − (− Indicates less than 2 fold induction) | –
8 | CCCc1n[nH]c2c1C(C1CC=CCC1)C(C#N)=C(N)O2 (stereo not shown) | – | – | – | – | – | – | – | HMOX gene induction (HMOX; Table 5): + (+ indicates a induction of greater than 2 fold); HSPA1a gene induction (HSPA1a; Table 5): — (— Indicates less than 2 fold induction); TUB1 gene induction (TUB1; Table 5): — (— Indicates less than 2 fold induction); DDIT3 gene induction (DDIT3; Table 5): — (— Indicates less than 2 fold induction); GCLM gene induction (GCLM; Table 5): + (+ indicates a induction of greater than 2 fold); BCL2 gene induction (BCL2; Table 5): — (— Indicates less than 2 fold induction); HspA5 gene induction (HspA5; Table 5): — (— Indicates less than 2 fold induction)
9 | COCc1n[nH]c2c1C(c1cccs1)C(C#N)=C(N)O2 (stereo not shown) [drawing 29/CH2OMe/H/H/S] | + (+ indicates a induction of greater than 2 fold) | − (− Indicates less than 2 fold induction) | − (− Indicates less than 2 fold induction) | − (− Indicates less than 2 fold induction) | + (+ indicates a induction of greater than 2 fold) | − (− Indicates less than 2 fold induction) | − (− Indicates less than 2 fold induction) | –
10 | COc1ccc(C2CC(=O)C3=C(C2)NC(C)=C(C(=O)OCC(C)C)C3c2cccc(F)c2)cc1 (stereo not shown) [drawing 27/Me/COOCH2CHMe2/m-F/OMe] | – | – | – | – | – | – | – | HMOX gene induction (HMOX; Table 2b): + (+ indicates a induction of greater than 2 fold); HSPA1a gene induction (HSPA1a; Table 2b): + (+ indicates a induction of greater than 2 fold); TUB1 gene induction (TUB1; Table 2a): − (− Indicates less than 2 fold induction); DDIT3 gene induction (DDIT3; Table 2a): − (− Indicates less than 2 fold induction); GCLM gene induction (GCLM; Table 2a): + (+ indicates a induction of greater than 2 fold); BCL2 gene induction (BCL2; Table 2b): + (+ indicates a induction of greater than 2 fold); HspA5 gene induction (HspA5; Table 2b): − (− Indicates less than 2 fold induction)
11 | CCn1c2c(c(=O)[nH]c1=O)C(c1cccc3ccccc13)C1=C(N2)c2ccccc2C1=O (stereo not shown) [B] | – | – | – | – | – | – | – | HMOX gene induction (HMOX; Table 6): + (+ indicates a induction of greater than 2 fold); HSPA1a gene induction (HSPA1a; Table 6): + (+ indicates a induction of greater than 2 fold); TUB1 gene induction (TUB1; Table 6): — (— Indicates less than 2 fold induction); DDIT3 gene induction (DDIT3; Table 6): + (+ indicates a induction of greater than 2 fold); GCLM gene induction (GCLM; Table 6): — (— Indicates less than 2 fold induction); BCL2 gene induction (BCL2; Table 6): — (— Indicates less than 2 fold induction); HspA5 gene induction (HspA5; Table 6): — (— Indicates less than 2 fold induction)
12 | CC1=C(C(=O)OCC(C)C)C(c2ccccc2OC(C)C)C2=C(CC(c3ccccc3)CC2=O)N1 (stereo not shown) [drawing 27/Me/COOCH2CHMe2/o-OCHMe2/H] | – | – | – | – | – | – | – | HMOX gene induction (HMOX; Table 2b): − (− Indicates less than 2 fold induction); HSPA1a gene induction (HSPA1a; Table 2b): − (− Indicates less than 2 fold induction); TUB1 gene induction (TUB1; Table 2a): − (− Indicates less than 2 fold induction); DDIT3 gene induction (DDIT3; Table 2a): + (+ indicates a induction of greater than 2 fold); GCLM gene induction (GCLM; Table 2a): − (− Indicates less than 2 fold induction); BCL2 gene induction (BCL2; Table 2b): − (− Indicates less than 2 fold induction); HspA5 gene induction (HspA5; Table 2b): − (− Indicates less than 2 fold induction)
13 | N#CC1=C(N)Oc2[nH]nc(-c3ccccn3)c2C1c1cccs1 (stereo not shown) [drawing 29/2-Pyridyl/H/H/S] | + (+ indicates a induction of greater than 2 fold) | − (− Indicates less than 2 fold induction) | − (− Indicates less than 2 fold induction) | − (− Indicates less than 2 fold induction) | + (+ indicates a induction of greater than 2 fold) | − (− Indicates less than 2 fold induction) | − (− Indicates less than 2 fold induction) | –

Reference: patent US20120214824A1, “PROTEOSTASIS REGULATORS” (priority 2010, published 2012)
